# Key:
# Test in all cases: relative viability (nuclei count vs DMSO), 5 days (fraction); higher = more cells survive
# [1] = compound: C[C@@H](C(=O)N[C@@H](C1CCCCC1)C(=O)N2CCC[C@H]2C(=O)N[C@@H]3[C@@H](CC4=CC=CC=C34)OCC#CC#CCO[C@@H]5CC6=CC=CC=C6[C@@H]5NC(=O)[C@@H]7CCCN7C(=O)[C@H](C8CCCCC8)NC(=O)[C@H](C)NC)NC [AZD5582] + CC(C)C[C@H](NC(=O)[C@H](Cc1ccccc1)NC(=O)c1cnccn1)B(O)O [Bortezomib] (partner 0.002 µM)
# Procedure, shortened: (§1)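 Relative viability divides the nuclei count in treated wells by that in vehicle wells. Lung cancer cell lines were seeded in 1536-well plates, dosed by pin tool the next day, and fixed and stained after 5 days in one step with final 0.05% Triton X-100, 1% formaldehyde and 1 ug/ml Hoechst. Dosing was a single drug or a fixed anchor-drug dose plus five library-drug doses (not always all listed) in √10 steps, and values are medians of duplicate plates imaged at 4×.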
# [2] = compound: C[C@@H](C(=O)N[C@@H](C1CCCCC1)C(=O)N2CCC[C@H]2C(=O)N[C@@H]3[C@@H](CC4=CC=CC=C34)OCC#CC#CCO[C@@H]5CC6=CC=CC=C6[C@@H]5NC(=O)[C@@H]7CCCN7C(=O)[C@H](C8CCCCC8)NC(=O)[C@H](C)NC)NC [AZD5582] + COc1cc2c(Oc3ccc(NC(=O)C4(C(=O)Nc5ccc(F)cc5)CC4)cc3F)ccnc2cc1OCCCN1CCOCC1 [Foretinib] (partner 0.25 µM)
# Procedure, shortened: as §1
# [3] = compound: C[C@@H](C(=O)N[C@@H](C1CCCCC1)C(=O)N2CCC[C@H]2C(=O)N[C@@H]3[C@@H](CC4=CC=CC=C34)OCC#CC#CCO[C@@H]5CC6=CC=CC=C6[C@@H]5NC(=O)[C@@H]7CCCN7C(=O)[C@H](C8CCCCC8)NC(=O)[C@H](C)NC)NC [AZD5582] + CS(=O)(=O)CCNCc1ccc(-c2ccc3ncnc(Nc4ccc(OCc5cccc(F)c5)c(Cl)c4)c3c2)o1 [Lapatinib] (partner 2 µM)
# Procedure, shortened: as §1
# [4] = compound: C[C@@H](C(=O)N[C@@H](C1CCCCC1)C(=O)N2CCC[C@H]2C(=O)N[C@@H]3[C@@H](CC4=CC=CC=C34)OCC#CC#CCO[C@@H]5CC6=CC=CC=C6[C@@H]5NC(=O)[C@@H]7CCCN7C(=O)[C@H](C8CCCCC8)NC(=O)[C@H](C)NC)NC [AZD5582] + CS(=O)(=O)N1CCN(Cc2cc3nc(-c4cccc5[nH]ncc45)nc(N4CCOCC4)c3s2)CC1 [Pictilisib] (partner 1 µM)
# Procedure, shortened: as §1
# [5] = compound: Cn1nnc2c(C(N)=O)ncn2c1=O [Temozolomide] + CS(=O)(=O)N1CCN(Cc2cc3nc(-c4cccc5[nH]ncc45)nc(N4CCOCC4)c3s2)CC1 [Pictilisib] (partner 1 µM)
# Procedure, shortened: as §1
cell line,measurement,setting,value
NCI-H1703,relative viability,[1]; first compound 0.001581 µM,0.228
same,relative viability,[1]; first compound 0.005 µM,0.277
same,relative viability,[1]; first compound 0.01581 µM,0.43
same,relative viability,[1]; first compound 0.05 µM,0.2
same,relative viability,[2]; first compound 0.005 µM,0.412
same,relative viability,[2]; first compound 0.01581 µM,0.376
same,relative viability,[2]; first compound 0.05 µM,0.372
same,relative viability,[3]; first compound 0.001581 µM,0.815
same,relative viability,[3]; first compound 0.005 µM,0.691
same,relative viability,[3]; first compound 0.01581 µM,1.16
same,relative viability,[3]; first compound 0.05 µM,0.681
same,relative viability,[4]; first compound 0.005 µM,0.255
same,relative viability,[4]; first compound 0.01581 µM,0.291
same,relative viability,[4]; first compound 0.05 µM,0.251
same,relative viability,[5]; first compound 0.2 µM,0.249
same,relative viability,[5]; first compound 0.6325 µM,0.255
same,relative viability,[5]; first compound 2 µM,0.301
same,relative viability,[5]; first compound 20 µM,0.272
